Measured values as given in US11642339B2 (THERAVANCE BIOPHARMA R&D IP, LLC, priority 2017, dated 2023).
“And” between values parts separate entries of the source, which are not always exact repeats. Identical values can stand only once.

Columns and labels:
[1] = tested on: subjects with diabetic or idiopathic gastroparesis; assay: DIGEST I: weekly GRS total score; conditions: ITT
Source text: Gastroparesis Rating Score is a patient reported outcome that measures 9 symptoms: (1) nausea, (2) bloating, (3) postprandial fullness, (4) early satiety, (5) vomiting, (6) abdominal pain, (7) epigastric burning, (8) gastric reflux with or without burning, and (9) bowel movements, using up to 27 questions assessing the severity of the symptom, the daily frequency of the symptom, the length of time on a daily basis of the symptom, and whether the symptom continues over a 24-hour period.
The total duration of study participation for each completed subject was approximately 19 weeks including: • Screening period: up to 5 weeks, including one week baseline period; • Treatment period: 12 weeks; and • Follow-up: 2 weeks.
During the treatment period, subjects were instructed to take 1 capsule of study drug once daily approximately 30 minutes prior to eating at approximately the same time each morning and to record the time of drug ingestion in the electronic diary. Subjects also completed the GCS1-24H and GRS on a daily basis using an electronic diary. […] Subjects returned to the study center for safety and efficacy assessments as detailed in the Schedule of Study Procedures.
(§1) A daily proprietary patient reported outcome (PRO) tool was used to assess GP symptoms, the Gastroparesis Rating Scale (GRS), developed according to the current FDA PRO guidance. The GRS covers the following cardinal symptom domains: (1) nausea, (2) vomiting, (3) postprandial fullness/early satiety, (4) bloating, (5) upper abdominal pain, (6) gastric reflux/burning, and (7) bowel movements. The GRS symptom domains may be also categorized or grouped into Factor 1 (fullness, early satiety, bloating, upper abdominal pain, and epigastric burning) and Factor 2 (nausea and vomiting).
The primary endpoint evaluation time point was Week 4 with sensitivity analyses conducted at Weeks 8 and 12.
LS Mean Differences in each subgroup are calculated based on repeated measures mixed effect model with change from baseline in weekly GRS total score as dependent variable, treatment, gastroparesis type (diabetic vs. idiopathic), GE test time (historical vs. prospective), baseline GRS total score, time, subgroup variable, interaction effect of treatment by time, baseline GRS total score by time, treatment by subgroup variable, time by subgroup variable and treatment by time by subgroup variable as fixed effect, a random effect of subject within site, using an unstructured covariance structure.

[2] = tested on: subjects with diabetic or idiopathic gastroparesis; assay: DIGEST I: responder analysis of GRS Summary Scores;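 further: weekly responder means a clinically relevant symptom change versus baseline, and weeks with missing data (dropouts) count as non-response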
Source text: A weekly responder was defined as a subject who experienced a clinically relevant change in symptoms from baseline.
Given these observations, a responder is any subject being a weekly responder for at least 6 of 12 weeks and at least 3 of the last 4 weeks of treatment. Subjects with missing data in the week (drop out) were defined as a non-responder for that week.

[3] = tested on: subjects with diabetic or idiopathic gastroparesis; assay: DIGEST I: GRS Summary Score 2 (Factor 2: nausea and vomiting); type: in vivo, human
Source text: as §1
GRS Factor 1 (also Summary Score 1) comprised fullness/early satiety, bloating, upper abdominal pain, and epigastric burning domains, whereas GRS Factor 2 (also Summary Score 2) comprised nausea and vomiting domains.
After the psychometric evaluation the GRS was summarized using two summary scores: Summary Score 1 combined the fullness/early satiety, bloating, upper abdominal pain, and epigastric burning domains and Summary Score 2 combined the nausea and vomiting domains.

[4] = 5 mg/day, responders for at least 6 of 12 weeks, ITT
[5] = 15 mg/day, at least 6 of 12 weeks and at least 3 weeks of Weeks 9-12, ITT
[6] = 15 mg/day, diabetic gastroparesis population
[7] = 15 mg/day, idiopathic gastroparesis population
[8] = 15 mg/day, responders for at least 6 of 12 weeks, ITT
[9] = 30 mg/day, at least 6 of 12 weeks and at least 3 weeks of Weeks 9-12, ITT
[10] = 30 mg/day, diabetic gastroparesis population
[11] = 30 mg/day, idiopathic gastroparesis population
[12] = 30 mg/day, responders for at least 6 of 12 weeks, ITT
[13] = 5 mg/day, Week 4, diabetic gastroparesis population
[14] = 5 mg/day, Week 4, idiopathic gastroparesis population
[15] = 5 mg/day, Week 8, diabetic gastroparesis population
[16] = 5 mg/day, Week 8, idiopathic gastroparesis population
[17] = 5 mg/day, Week 12, diabetic gastroparesis population
[18] = 5 mg/day, Week 12, idiopathic gastroparesis population
[19] = 15 mg/day, Week 4, diabetic gastroparesis population
[20] = 15 mg/day, Week 4, idiopathic gastroparesis population
[21] = 15 mg/day, Week 8, diabetic gastroparesis population
[22] = 15 mg/day, Week 8, idiopathic gastroparesis population
[23] = 15 mg/day, Week 12, diabetic gastroparesis population
[24] = 15 mg/day, Week 12, idiopathic gastroparesis population
[25] = 30 mg/day, Week 4, diabetic gastroparesis population
[26] = 30 mg/day, Week 4, idiopathic gastroparesis population
[27] = 30 mg/day, Week 8, diabetic gastroparesis population
[28] = 30 mg/day, Week 8, idiopathic gastroparesis population
[29] = 30 mg/day, Week 12, diabetic gastroparesis population
[30] = 30 mg/day, Week 12, idiopathic gastroparesis population

Substance: 1-isopropyl-2-oxo-1,2-dihydroquinoline-3-carboxylic acid {(1S,3R,5R)-8-[(R)-2-hydroxy-3-(methanesulfonyl-methyl-amino)propyl]-8-azabicyclo[3.2.1]oct-3-yl}amide [Velusetrag]
- LS Mean Difference vs placebo, weekly GRS total score ([1]; 5 mg/day, Week 4): −0.4 points and −0.4 (0.16) points
- LS Mean change from baseline, weekly GRS total score ([1]; 5 mg/day, Week 4): −1.3 (0.11) points
- LS Mean Difference vs placebo, weekly GRS total score ([1]; 5 mg/day, Week 8): −0.3 (0.18) points
- LS Mean change from baseline, weekly GRS total score ([1]; 5 mg/day, Week 8): −1.4 (0.13) points
- LS Mean Difference vs placebo, weekly GRS total score ([1]; 5 mg/day, Week 12): −0.4 (0.18) points
- LS Mean change from baseline, weekly GRS total score ([1]; 5 mg/day, Week 12): −1.5 (0.13) points
- LS Mean Difference vs placebo, weekly GRS total score ([1]; 15 mg/day, Week 4): −0.2 (0.17) points
- LS Mean change from baseline, weekly GRS total score ([1]; 15 mg/day, Week 4): −1.1 (0.12) points
- LS Mean Difference vs placebo, weekly GRS total score ([1]; 15 mg/day, Week 8): −0.1 (0.19) points
- LS Mean change from baseline, weekly GRS total score ([1]; 15 mg/day, Week 8): −1.2 (0.14) points
- LS Mean Difference vs placebo, weekly GRS total score ([1]; 15 mg/day, Week 12): −0.2 (0.19) points
- LS Mean change from baseline, weekly GRS total score ([1]; 15 mg/day, Week 12): −1.3 (0.14) points
- LS Mean Difference vs placebo, weekly GRS total score ([1]; 30 mg/day, Week 4): 0.0 (0.17) points
- LS Mean change from baseline, weekly GRS total score ([1]; 30 mg/day, Week 4): −0.8 (0.12) points
- LS Mean Difference vs placebo, weekly GRS total score ([1]; 30 mg/day, Week 8): −0.1 (0.19) points
- LS Mean change from baseline, weekly GRS total score ([1]; 30 mg/day, Week 8): −1.1 (0.13) points
- LS Mean Difference vs placebo, weekly GRS total score ([1]; 30 mg/day, Week 12): −0.1 (0.19) points
- LS Mean change from baseline, weekly GRS total score ([1]; 30 mg/day, Week 12): −1.3 (0.13) points
- LS Proportion of positive responders; Summary Score 1 [2, 4]: 0.54
- LS Proportion of positive responders; Summary Score 2 [2, 4]: 0.57
- Responders, %; Summary Score 1 [2, 4]: (55.9) %
- Responders, %; Summary Score 2 [2, 4]: (57.6) %
- Responders, n; Summary Score 1 [2, 4]: 33
- Responders, n; Summary Score 2 [2, 4]: 34
- LS Proportion of positive responders; Summary Score 1 [2, 5]: 0.45
- LS Proportion of positive responders; Summary Score 2 [2, 5]: 0.43
- Responders, %; Summary Score 1 [2, 5]: (45.3) %
- Responders, %; Summary Score 2 [2, 5]: (43.4) %
- Responders, n; Summary Score 1 [2, 5]: 24
- Responders, n; Summary Score 2 [2, 5]: 23
- LS Proportion of positive responders; Summary Score 1 [2, 6]: 0.44
- LS Proportion of positive responders; Summary Score 2 [2, 6]: 0.31
- Responders, %; Summary Score 1 [2, 6]: (44.8) %
- Responders, %; Summary Score 2 [2, 6]: (34.5) %
- Responders, n; Summary Score 1 [2, 6]: 13
- Responders, n; Summary Score 2 [2, 6]: 10
- LS Proportion of positive responders; Summary Score 1 [2, 7]: 0.48
- LS Proportion of positive responders; Summary Score 2 [2, 7]: 0.58
- Responders, %; Summary Score 1 [2, 7]: (45.8) %
- Responders, %; Summary Score 2 [2, 7]: (54.2) %
- Responders, n; Summary Score 1 [2, 7]: 11
- Responders, n; Summary Score 2 [2, 7]: 13
- LS Proportion of positive responders; Summary Score 1 [2, 8]: 0.49
- LS Proportion of positive responders; Summary Score 2 [2, 8]: 0.51
- Responders, %; Summary Score 1 [2, 8]: (49.1) %
- Responders, %; Summary Score 2 [2, 8]: (50.9) %
- Responders, n; Summary Score 1 [2, 8]: 26
- Responders, n; Summary Score 2 [2, 8]: 27
- LS Proportion of positive responders; Summary Score 1 [2, 9]: 0.44
- LS Proportion of positive responders; Summary Score 2 [2, 9]: 0.45
- Responders, %; Summary Score 1 [2, 9]: (47.4) %
- Responders, %; Summary Score 2 [2, 9]: (49.1) %
- Responders, n; Summary Score 1 [2, 9]: 27
- Responders, n; Summary Score 2 [2, 9]: 28
- LS Proportion of positive responders; Summary Score 1 [2, 10]: 0.48
- LS Proportion of positive responders; Summary Score 2 [2, 10]: 0.45
- Responders, %; Summary Score 1 [2, 10]: (50.0) %
- Responders, %; Summary Score 2 [2, 10]: (50.0) %
- Responders, n; Summary Score 1 [2, 10]: 13
- Responders, n; Summary Score 2 [2, 10]: 13
- LS Proportion of positive responders; Summary Score 1 [2, 11]: 0.41
- LS Proportion of positive responders; Summary Score 2 [2, 11]: 0.45
- Responders, %; Summary Score 1 [2, 11]: (45.2) %
- Responders, %; Summary Score 2 [2, 11]: (48.4) %
- Responders, n; Summary Score 1 [2, 11]: 14
- Responders, n; Summary Score 2 [2, 11]: 15
- LS Proportion of positive responders; Summary Score 1 [2, 12]: 0.44
- LS Proportion of positive responders; Summary Score 2 [2, 12]: 0.47
- Responders, %; Summary Score 1 [2, 12]: (47.4) %
- Responders, %; Summary Score 2 [2, 12]: (50.9) %
- Responders, n; Summary Score 1 [2, 12]: 27
- Responders, n; Summary Score 2 [2, 12]: 29
- LS Mean Difference vs placebo, GRS Summary Score 2 (Factor 2) ([3]; 5 mg/day, Week 4, ITT): −0.1 points and −0.1 (0.12) points
- LS Mean change from baseline, GRS Summary Score 2 (Factor 2) ([3]; 5 mg/day, Week 4, ITT): 0.8 (0.08) points
- LS Mean Difference vs placebo, GRS Summary Score 2 (Factor 2) [3, 13]: −0.0 points
- LS Mean change from baseline, GRS Summary Score 2 (Factor 2) [3, 13]: −0.8 points
- LS Mean Difference vs placebo, GRS Summary Score 2 (Factor 2) [3, 14]: −0.3 (0.17) points
- LS Mean change from baseline, GRS Summary Score 2 (Factor 2) [3, 14]: −0.9 (0.12) points
- LS Mean Difference vs placebo, GRS Summary Score 2 (Factor 2) ([3]; 5 mg/day, Week 8, ITT): −0.1 (0.13) points
- LS Mean change from baseline, GRS Summary Score 2 (Factor 2) ([3]; 5 mg/day, Week 8, ITT): −0.9 (0.09) points
- LS Mean Difference vs placebo, GRS Summary Score 2 (Factor 2) [3, 15]: 0.0 points
- LS Mean change from baseline, GRS Summary Score 2 (Factor 2) [3, 15]: −0.9 points
- LS Mean Difference vs placebo, GRS Summary Score 2 (Factor 2) [3, 16]: −0.3 (0.18) points
- LS Mean change from baseline, GRS Summary Score 2 (Factor 2) [3, 16]: −0.9 (0.13) points
- LS Mean Difference vs placebo, GRS Summary Score 2 (Factor 2) ([3]; 5 mg/day, Week 12, ITT): −0.2 points and −0.2 (0.12) points
- LS Mean change from baseline, GRS Summary Score 2 (Factor 2) ([3]; 5 mg/day, Week 12, ITT): −1.0 (0.08) points
- LS Mean Difference vs placebo, GRS Summary Score 2 (Factor 2) [3, 17]: −0.1 points
- LS Mean change from baseline, GRS Summary Score 2 (Factor 2) [3, 17]: −1.0 points
- LS Mean Difference vs placebo, GRS Summary Score 2 (Factor 2) [3, 18]: −0.3 (0.17) points
- LS Mean change from baseline, GRS Summary Score 2 (Factor 2) [3, 18]: −1.0 (0.12) points
- LS Mean Difference vs placebo, GRS Summary Score 2 (Factor 2) ([3]; 15 mg/day, Week 4, ITT): −0.0 (0.12) points
- LS Mean change from baseline, GRS Summary Score 2 (Factor 2) ([3]; 15 mg/day, Week 4, ITT): −0.7 (0.09) points
- LS Mean Difference vs placebo, GRS Summary Score 2 (Factor 2) [3, 19]: 0.1 points
- LS Mean change from baseline, GRS Summary Score 2 (Factor 2) [3, 19]: −0.7 points
- LS Mean Difference vs placebo, GRS Summary Score 2 (Factor 2) [3, 20]: −0.2 (0.18) points
- LS Mean change from baseline, GRS Summary Score 2 (Factor 2) [3, 20]: −0.8 (0.13) points
- LS Mean Difference vs placebo, GRS Summary Score 2 (Factor 2) ([3]; 15 mg/day, Week 8, ITT): −0.0 (0.13) points
- LS Mean change from baseline, GRS Summary Score 2 (Factor 2) ([3]; 15 mg/day, Week 8, ITT): −0.8 (0.10) points
- LS Mean Difference vs placebo, GRS Summary Score 2 (Factor 2) [3, 21]: 0.3 points
- LS Mean change from baseline, GRS Summary Score 2 (Factor 2) [3, 21]: −0.6 points
- LS Mean Difference vs placebo, GRS Summary Score 2 (Factor 2) [3, 22]: −0.2 (0.19) points
- LS Mean change from baseline, GRS Summary Score 2 (Factor 2) [3, 22]: −0.9 (0.14) points
- LS Mean Difference vs placebo, GRS Summary Score 2 (Factor 2) ([3]; 15 mg/day, Week 12, ITT): −0.1 (0.12) points
- LS Mean change from baseline, GRS Summary Score 2 (Factor 2) ([3]; 15 mg/day, Week 12, ITT): −0.9 (0.09) points
- LS Mean Difference vs placebo, GRS Summary Score 2 (Factor 2) [3, 23]: 0.1 points
- LS Mean change from baseline, GRS Summary Score 2 (Factor 2) [3, 23]: −0.8 points
- LS Mean Difference vs placebo, GRS Summary Score 2 (Factor 2) [3, 24]: −0.3 (0.18) points
- LS Mean change from baseline, GRS Summary Score 2 (Factor 2) [3, 24]: −1.0 (0.13) points
- LS Mean Difference vs placebo, GRS Summary Score 2 (Factor 2) ([3]; 30 mg/day, Week 4, ITT): 0.1 (0.12) points
- LS Mean change from baseline, GRS Summary Score 2 (Factor 2) ([3]; 30 mg/day, Week 4, ITT): −0.6 (0.09) points
- LS Mean Difference vs placebo, GRS Summary Score 2 (Factor 2) [3, 25]: 0.1 points
- LS Mean change from baseline, GRS Summary Score 2 (Factor 2) [3, 25]: −0.6 points
- LS Mean Difference vs placebo, GRS Summary Score 2 (Factor 2) [3, 26]: −0.0 (0.17) points
- LS Mean change from baseline, GRS Summary Score 2 (Factor 2) [3, 26]: −0.7 (0.12) points
- LS Mean Difference vs placebo, GRS Summary Score 2 (Factor 2) ([3]; 30 mg/day, Week 8, ITT): −0.0 (0.13) points
- LS Mean change from baseline, GRS Summary Score 2 (Factor 2) ([3]; 30 mg/day, Week 8, ITT): −0.8 (0.09) points
- LS Mean Difference vs placebo, GRS Summary Score 2 (Factor 2) [3, 27]: 0.1 points
- LS Mean change from baseline, GRS Summary Score 2 (Factor 2) [3, 27]: −0.8 points
- LS Mean Difference vs placebo, GRS Summary Score 2 (Factor 2) [3, 28]: −0.1 (0.18) points
- LS Mean change from baseline, GRS Summary Score 2 (Factor 2) [3, 28]: −0.8 (0.13) points
- LS Mean Difference vs placebo, GRS Summary Score 2 (Factor 2) ([3]; 30 mg/day, Week 12, ITT): −0.2 (0.12) points
- LS Mean change from baseline, GRS Summary Score 2 (Factor 2) ([3]; 30 mg/day, Week 12, ITT): −1.0 (0.08) points
- LS Mean Difference vs placebo, GRS Summary Score 2 (Factor 2) [3, 29]: −0.2 points
- LS Mean change from baseline, GRS Summary Score 2 (Factor 2) [3, 29]: −1.1 points
- LS Mean Difference vs placebo, GRS Summary Score 2 (Factor 2) [3, 30]: −0.2 (0.17) points
- LS Mean change from baseline, GRS Summary Score 2 (Factor 2) [3, 30]: −0.9 (0.12) points
